Source: article PMC7345905, “Microbial Metabolite Urolithin B Inhibits Recombinant Human Monoamine Oxidase A Enzyme” (Metabolites, 2020)
Where “and” joins values, the source holds several entries; their conditions need not be identical. Identical values can stand only once.

Key:
human recombinant MAO-B = molecular target: T1, human recombinant MAO-B (Homo sapiens, UniProt P27338); test: MAO-Glo MAO-B inhibition assay; type: biochemical
T1 construct: purchased Sigma-Aldrich
T1 sequence (P27338 1-520): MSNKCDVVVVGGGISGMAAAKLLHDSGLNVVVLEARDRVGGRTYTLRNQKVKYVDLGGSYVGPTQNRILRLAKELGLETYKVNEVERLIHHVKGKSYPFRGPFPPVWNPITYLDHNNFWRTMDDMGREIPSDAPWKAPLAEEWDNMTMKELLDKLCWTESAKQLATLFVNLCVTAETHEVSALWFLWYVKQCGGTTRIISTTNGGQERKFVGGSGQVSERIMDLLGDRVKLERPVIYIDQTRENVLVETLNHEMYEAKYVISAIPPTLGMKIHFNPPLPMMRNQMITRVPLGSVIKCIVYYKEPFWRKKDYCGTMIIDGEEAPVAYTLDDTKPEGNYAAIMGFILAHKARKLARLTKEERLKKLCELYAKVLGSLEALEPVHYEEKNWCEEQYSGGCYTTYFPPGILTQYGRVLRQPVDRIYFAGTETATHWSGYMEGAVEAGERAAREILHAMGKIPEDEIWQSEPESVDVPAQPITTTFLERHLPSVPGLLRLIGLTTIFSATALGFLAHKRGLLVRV
Experimental: (§1) MAO inhibition assays were performed using a MAO-Glo™ Assay kit (Promega) according to the manufacturer’s instructions. Briefly, 1 µg of human recombinant MAO-A and MAO-B enzyme isoforms were incubated with 160 and 16 µM of MAO substrates, respectively. […] The enzyme reaction was quenched by the addition of a luciferin detection reagent. […] An equal volume of dimethyl sulfoxide (0.1%) was added to the enzyme assay as a control. After 1 h of incubation, the luminescence was measured with a multimode microplate reader (Synergy HT, BioTek, Winooski, VT, USA) to determine the MAO enzyme activities. Initially, the inhibition potential of all the test compounds was evaluated at a concentration of 100 μM. The control reaction (with no inhibitor) with vehicle (DMSO 0.1%) was set at 100% activity. To determine IC50 of the test compounds, the dose dependent enzyme assays were performed. We used range of 0.1 to 50 μM concentrations for MAO-A and 0.1 to 200 μM concentrations of test compounds for the MAO-B enzyme activities. The type of enzyme inhibition was determined using variable concentrations of MAO-A substrate (10–360 µM) and MAO-B substrate (2–64 µM) for the respective enzyme assay. […] A Lineweaver–Burk double reciprocal plot was generated, and the mode of inhibition was determined by visual examination of the plot. The slope of the reciprocal plots was plotted against the inhibitor concentrations and determined the x-axis intercept that represented the inhibitor constant, Ki value.

human recombinant MAO-A = molecular target: T2, human recombinant MAO-A (Homo sapiens, UniProt P21397); test: MAO-Glo MAO-A inhibition assay; type: biochemical; conditions: 100 µM
T2 construct: purchased Sigma-Aldrich
T2 sequence (P21397 1-527): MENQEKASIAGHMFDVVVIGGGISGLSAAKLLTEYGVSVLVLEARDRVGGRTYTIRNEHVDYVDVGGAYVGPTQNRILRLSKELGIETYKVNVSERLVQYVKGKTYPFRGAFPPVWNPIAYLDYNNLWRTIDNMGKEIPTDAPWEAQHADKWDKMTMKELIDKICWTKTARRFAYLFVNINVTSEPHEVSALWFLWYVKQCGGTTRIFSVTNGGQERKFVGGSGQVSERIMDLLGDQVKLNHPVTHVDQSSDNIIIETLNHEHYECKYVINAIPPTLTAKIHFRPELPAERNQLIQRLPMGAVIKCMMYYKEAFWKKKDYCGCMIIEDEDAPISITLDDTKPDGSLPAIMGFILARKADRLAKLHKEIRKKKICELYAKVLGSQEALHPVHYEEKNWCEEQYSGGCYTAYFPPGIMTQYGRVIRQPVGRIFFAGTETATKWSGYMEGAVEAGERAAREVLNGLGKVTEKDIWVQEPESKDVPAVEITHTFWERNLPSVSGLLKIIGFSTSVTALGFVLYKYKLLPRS
Experimental: as §1

inhibition at 100 µM (human recombinant MAO-B; 100 μM): 20 to 30%
remaining activity at 100 µM (human recombinant MAO-B; 100 µM (Figure 1C), N=1-3, read-out: MAO-B enzyme assay, Percent of control): 88.7%
inhibition of MAO-A enzyme activity (human recombinant MAO-A; compared to vehicle): failed to inhibit
Structure (SMILES): O=c1oc2c(O)c(O)cc3c(=O)oc4c(O)c(O)cc1c4c23 [EA, ellagic acid]
MAO-B enzyme assay, Percent of control (human recombinant MAO-B; 100 µM (Figure 1C), N=1-3, 100 µM): 89.6601% of control and 87.5901% of control
MAO-A enzyme assay, Percent of control (human recombinant MAO-A; 100 µM (Figure 1A), N=1-3): 80.5551% of control and 100.559% of control and 100.148% of control
